Patent US11407721B2, “CIS-morpholinone and other compounds as MDM2 inhibitors for the treatment of cancer” (AMGEN INC., priority 2013, dated 2022)
pIC50: −log10 of the molar value. Where two headings read alike, the source gives them in different places.

Key:
[1] = target: interaction between HDM2 and p53 (GST-hMDM2 (1-188) / biotinylated-p53 (1-83)) (Homo sapiens (Human), UniProt Q00987); assay: HTRF2 Assay (improved HTRF assay); format: binding
[2] = target: interaction between HDM2 and p53 (GST-hMDM2 / biotinylated-p53) (Homo sapiens (Human), UniProt Q00987); assay: biochemical
[3] = 0.2 nM GST-hMDM2 (1-188), 0.5 nM biotinylated-p53 (1-83), 100 mM KF, read-out: HTRF2 IC50

interaction between HDM2 and p53 (GST-hMDM2 / biotinylated-p53), sequence (Q00987 1-188): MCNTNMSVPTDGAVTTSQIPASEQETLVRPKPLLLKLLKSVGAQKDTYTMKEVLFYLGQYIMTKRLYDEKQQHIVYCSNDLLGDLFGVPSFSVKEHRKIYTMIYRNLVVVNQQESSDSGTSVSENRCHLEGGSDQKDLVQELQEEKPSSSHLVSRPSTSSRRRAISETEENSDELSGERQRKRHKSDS
interaction between HDM2 and p53 (GST-hMDM2 (1-188) / biotinylated-p53 (1-83)), sequence (Q00987 1-188): as above

| Compound | pIC50 [1, 3] | pIC50 [2] | pIC50 ([1]; read-out: HTRF2 IC50) | pIC50 [1] |
| --- | --- | --- | --- | --- |
| CN1C(=O)/C(=C/c2cccnc2)O[C@H](c2ccc(Cl)cc2)C1c1ccc(Cl)cc1 (mixture of isomers) [Example 39, (5S,6R,Z)-5,6-Bis(4-chlorophenyl)-4-methyl-2-(pyridin-3-ylmethylene)morpholin-3-one and (5R,6S,Z)-5,6-bis(4-chlorophenyl)-4-methyl-2-(pyridin-3-ylmethylene)morpholin-3-one] | 5.18 | 4.98 |  |  |
| CCC[C@@H](C(=O)O)N1C(=O)[C@@H](Cc2ccncc2)O[C@H](c2ccc(Cl)cc2)C1c1ccc(Cl)cc1 (mixture of isomers) [Example 42, (S)-2-((2R,3S,6R)-2,3-Bis(4-chlorophenyl)-5-oxo-6-(pyridin-4-ylmethyl)morpholino)pentanoic acid and (R)-2-((2S,3R,6S)-2,3-bis(4-chlorophenyl)-5-oxo-6-(pyridin-4-ylmethyl)morpholino)pentanoic acid] | 6.02 | 6.27 |  |  |
| O=C1[C@H](C[C@H](O)CO)O[C@@H](c2cccc(Cl)c2)[C@@H](c2ccc(Cl)cc2)N1CC1CC1 (racemic) [Example 14, Step B] |  | 5.33 | 5.44 |  |
| O=CC[C@@H]1O[C@@H](c2cccc(Cl)c2)[C@@H](c2ccc(Cl)cc2)N(CC2CC2)C1=O (racemic) [Example 15, (2-((2S,5R,6S)-6-(3-Chlorophenyl)-5-(4-chlorophenyl)-4-(cyclopropylmethyl)-3-oxomorpholin-2-yl)acetaldehydeacetaldehyde and (2-((2R,5S,6R)-6-(3-chlorophenyl)-5-(4-chlorophenyl)-4-(cyclopropylmethyl)-3-oxomorpholin-2-yl)acetaldehydeacetaldehyde] |  | 5.40 | 5.48 |  |
| CCC[C@H](C(=O)NCC(N)=O)N1C(=O)[C@H](Cc2ccc(C#N)cc2)O[C@@H](c2ccc(Cl)cc2)[C@H]1c1ccc(Cl)cc1 (racemic) [Example 34, (R)—N-(2-Amino-2-oxoethyl)-2-((2S,3R,6S)-2,3-bis(4-chlorophenyl)-6-(4-cyanobenzyl)-5-oxomorpholino)pentanamide and (S)—N-(2-amino-2-oxoethyl)-2-((2R,3S,6R)-2,3-bis(4-chlorophenyl)-6-(4-cyanobenzyl)-5-oxomorpholino)pentanamide] |  | 6.31 | 6.13 |  |
| CCC[C@H](c1nnn[nH]1)N1C(=O)[C@H](Cc2ccc(I)cc2)O[C@@H](c2ccc(Cl)cc2)[C@H]1c1ccc(Cl)cc1 (racemic) [Example 36, (2S,5R,6S)-4-((R)-1-(1H-Tetrazol-5-yl)butyl)-5,6-bis(4-chlorophenyl)-2-(4-iodobenzyl)morpholin-3-one and (2R,5S,6R)-4-((S)-1-(1H-tetrazol-5-yl)butyl)-5,6-bis(4-chlorophenyl)-2-(4-iodobenzyl)morpholin-3-one] |  | 6.29 |  |  |
| CN1C(=O)[C@@H](CC(N)=O)O[C@H](c2ccc(Cl)cc2)[C@@H]1c1ccc(Cl)cc1 [2-((2R,5S,6R)-5,6-bis(4-chlorophenyl)-4-methyl-3-oxo-2-morpholinyl)acetamide] |  | 4.36 |  |  |
| CC[C@H](C(=O)O)N1C(=O)CO[C@H](c2ccc(Cl)cc2)[C@@H]1c1ccc(Cl)cc1 [(2R)-2-((2R,3S)-2,3-bis(4-chlorophenyl)-5-oxo-4-morpholinyl)butanoic acid] |  | 4.40 |  |  |
| CCCC[C@H](C(=O)O)N1C(=O)CO[C@H](c2ccc(Cl)cc2)[C@@H]1c1ccc(Cl)cc1 [(2R)-2-((2R,3S)-2,3-bis(4-chlorophenyl)-5-oxo-4-morpholinyl)hexanoic acid] |  | 4.48 |  |  |
| C[C@H](C(=O)O)N1C(=O)CO[C@H](c2ccc(Cl)cc2)[C@@H]1c1ccc(Cl)cc1 [(2R)-2-((2R,3S)-2,3-bis(4-chlorophenyl)-5-oxo-4-morpholinyl)propanoic acid] |  | 4.21 |  |  |
| CCCC[C@H](C(=O)O)N1C(=O)CO[C@@H](c2ccc(Cl)cc2)[C@H]1c1ccc(Cl)cc1 [(2R)-2-((2S,3R)-2,3-bis(4-chlorophenyl)-5-oxo-4-morpholinyl)hexanoic acid] |  | 4.56 |  | 4.63 |
| CCC[C@H](C(N)=O)N1C(=O)CO[C@@H](c2ccc(Cl)cc2)[C@H]1c1ccc(Cl)cc1 [(2R)-2-((2S,3R)-2,3-bis(4-chlorophenyl)-5-oxo-4-morpholinyl)pentanamide] | 5.37 | 5.50 |  |  |
| CCC[C@H](COC(N)=O)N1C(=O)CO[C@@H](c2ccc(Cl)cc2)[C@H]1c1ccc(Cl)cc1 [(2R)-2-((2S,3R)-2,3-bis(4-chlorophenyl)-5-oxo-4-morpholinyl)pentyl carbamate] | 5.44 | 5.43 |  |  |
| CCC[C@H](C(=O)O)N1C(=O)[C@H](Cc2ccc(C#N)c(F)c2)O[C@@H](c2ccc(Cl)cc2)[C@H]1c1ccc(Cl)cc1 [(2R)-2-((2S,3R,6S)-2,3-bis(4-chlorophenyl)-6-(4-cyano-3-fluorobenzyl)-5-oxo-4-morpholinyl)pentanoic acid] |  | 6.35 |  | 6.27 |
| CCC[C@H](C(=O)O)N1C(=O)[C@H](Cc2ccc(C#N)cc2)O[C@@H](c2ccc(Cl)cc2)[C@H]1c1ccc(Cl)cc1 [(2R)-2-((2S,3R,6S)-2,3-bis(4-chlorophenyl)-6-(4-cyanobenzyl)-5-oxo-4-morpholinyl)pentanoic acid] |  | 6.53 |  | 6.41 |
| C[C@H]1O[C@@H](c2ccc(Br)cc2)[C@@H](c2ccc(Br)cc2)N(C)C1=O [(2R,5R,6S)-5,6-bis(4-bromophenyl)-2,4-dimethyl-3-morpholinone] |  | 4.33 |  |  |
| CN1C(=O)[C@H](O)O[C@@H](c2ccc(Cl)cc2)[C@H]1c1ccc(Cl)cc1 [(2R,5R,6S)-5,6-bis(4-chlorophenyl)-2-hydroxy-4-methyl-3-morpholinone] |  | 4.17 |  |  |

| Compound | pIC50 [1, 3] | pIC50 [2] | pIC50 ([1]; read-out: HTRF2 IC50) | pIC50 [1] |
| --- | --- | --- | --- | --- |
| C=CC[C@H]1O[C@H](c2ccc(Br)cc2)[C@H](c2ccc(Br)cc2)N(C)C1=O [(2R,5S,6R)-5,6-bis(4-bromophenyl)-4-methyl-2-(2-propen-1-yl)-3-morpholinone] | 4.60 | 4.63 |  |  |
| CN1C(=O)[C@@H](c2ccccc2)O[C@H](c2ccc(Br)cc2)[C@@H]1c1ccc(Br)cc1 [(2R,5S,6R)-5,6-bis(4-bromophenyl)-4-methyl-2-phenyl-3-morpholinone] | 4.70 | 4.91 |  |  |
| C[C@@H]1O[C@@H](c2ccc(Br)cc2)[C@@H](c2ccc(Br)cc2)N(C)C1=O [(2S,5R,6S)-5,6-bis(4-bromophenyl)-2,4-dimethyl-3-morpholinone] | 4.64 | 4.63 |  |  |
| CCC[C@H](CN)N1C(=O)CO[C@@H](c2ccc(Cl)cc2)[C@H]1c1ccc(Cl)cc1 [(5R,6S)-4-((1R)-1-(aminomethyl)butyl)-5,6-bis(4-chlorophenyl)-3-morpholinone] | 5.22 | 5.16 |  |  |
| CN1C(=O)CN(Cc2ccccc2)[C@H](c2ccc(Br)cc2)[C@@H]1c1ccc(Br)cc1 [(5R,6S)-5,6-bis(4-bromophenyl)-1-methyl-4-(phenylmethyl)-2-piperazinone] |  | 4.14 |  |  |
| O=C1CN(Cc2ccccc2)[C@H](c2ccc(Br)cc2)[C@H](c2ccc(Br)cc2)N1 [(5R,6S)-5,6-bis(4-bromophenyl)-4-(phenylmethyl)-2-piperazinone] |  | 4.07 |  |  |
| O=C1CO[C@@H](c2ccc(Br)cc2)[C@@H](c2ccc(Br)cc2)N1C1CC1 [(5R,6S)-5,6-bis(4-bromophenyl)-4-cyclopropyl-3-morpholinone] |  | 4.42 |  |  |
| O=C1CO[C@@H](c2ccc(Cl)cc2)[C@@H](c2ccc(Cl)cc2)N1c1cccnc1 [(5R,6S)-5,6-bis(4-chlorophenyl)-4-(3-pyridinyl)-3-morpholinone] | 4.53 | 4.62 |  |  |
| O=C1CO[C@@H](c2ccc(Cl)cc2)[C@@H](c2ccc(Cl)cc2)N1c1ccncc1 [(5R,6S)-5,6-bis(4-chlorophenyl)-4-(4-pyridinyl)-3-morpholinone] | 4.77 | 4.62 |  |  |
| O=C1CO[C@@H](c2ccc(Cl)cc2)[C@@H](c2ccc(Cl)cc2)N1CC1CC1 [(5R,6S)-5,6-bis(4-chlorophenyl)-4-(cyclopropylmethyl)-3-morpholinone] |  | 4.38 |  |  |
| O=C1CO[C@@H](c2ccc(Cl)cc2)[C@@H](c2ccc(Cl)cc2)N1c1ccccc1 [(5R,6S)-5,6-bis(4-chlorophenyl)-4-phenyl-3-morpholinone] | 4.50 | < 4.00 |  |  |
| O=C1CO[C@@H](c2cccc(Cl)c2)[C@@H](c2ccc(Cl)cc2)N1C1CCCC1 [(5R,6S)-6-(3-chlorophenyl)-5-(4-chlorophenyl)-4-cyclopentyl-3-morpholinone] | 5.00 | 4.78 |  |  |
| CCN1C(=O)CO[C@H](c2ccc(Br)cc2)[C@@H]1c1ccc(Br)cc1 [(5S,6R)-5,6-bis(4-bromophenyl)-4-ethyl-3-morpholinone] |  | 4.37 |  |  |
| CCC[C@H](C(=O)O)N1C(=O)[C@H](Cc2ccc(S(=O)(=O)C(F)(F)F)cc2)O[C@@H](c2ccc(Cl)cc2)[C@H]1c1ccc(Cl)cc1 [Example 56, (R)-2-((2S,3R,6S)-2,3-Bis(4-chlorophenyl)-5-oxo-6-(4-((trifluoromethyl)sulfonyl)benzyl)morpholino)pentanoic acid] | 6.34 |  |  |  |
| CCC[C@H](C(=O)O)N1C(=O)[C@H](CCCN2CCOCC2)O[C@@H](c2ccc(Cl)cc2)[C@H]1c1ccc(Cl)cc1 [Example 57, (R)-2-((2S,3R,6S)-2,3-Bis(4-chlorophenyl)-6-(3-morpholinopropyl)-5-oxomorpholino)pentanoic acid] | 6.41 |  |  |  |
| CCC[C@H](C(=O)OCC)N1C(=O)[C@H](CCCN2CCOCC2)O[C@@H](c2ccc(Cl)cc2)[C@H]1c1ccc(Cl)cc1 [ethyl (2R)-2-((2S,3R,6S)-2,3-bis(4-chlorophenyl)-6-(3-(4-morpholinyl)propyl)-5-oxo-4-morpholinyl)pentanoate] | 5.55 |  |  |  |
| CCC[C@H](C(=O)NCCCC(=O)OC)N1C(=O)[C@H](Cc2ccc(S(C)(=O)=O)cc2)O[C@@H](c2ccc(Cl)cc2)[C@H]1c1ccc(Cl)cc1 [methyl 4-(((2R)-2-((2S,3R,6S)-2,3-bis(4-chlorophenyl)-6-(4-(methylsulfonyl)benzyl)-5-oxo-4-morpholinyl)pentanoyl)amino)butanoate] | 6.13 |  |  |  |
